Test results: BindingDB's records for doi:10.1021/jm060996+ (Merck Research Laboratories, 2006)

The molecules below were run against Cannabinoid receptor 2 (Homo sapiens, UniProt P34972) (assay: Inhibition of [3H]CP-55940 binding to human recombinant CB2 receptor in CHO cells).
Cannabinoid receptor 2, sequence (P34972 whole entry): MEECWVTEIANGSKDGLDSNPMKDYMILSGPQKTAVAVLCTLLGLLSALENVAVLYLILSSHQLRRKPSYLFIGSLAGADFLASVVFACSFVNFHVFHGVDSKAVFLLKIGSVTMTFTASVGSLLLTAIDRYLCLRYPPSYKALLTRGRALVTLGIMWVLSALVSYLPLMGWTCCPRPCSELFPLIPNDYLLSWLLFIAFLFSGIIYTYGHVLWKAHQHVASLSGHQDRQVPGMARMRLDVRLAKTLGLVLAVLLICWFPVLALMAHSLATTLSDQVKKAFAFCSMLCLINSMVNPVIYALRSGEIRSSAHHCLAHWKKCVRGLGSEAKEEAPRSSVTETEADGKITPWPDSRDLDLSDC

SMILES	IC50 [nM]
C[C@H](NC(=O)C(C)(C)Oc1ccc(C(F)(F)F)cn1)[C@@H](Cc1ccc(Cl)cc1)c1ccccc1 [N-((2S,3S)-4-(4-chlorophenyl)-3-phenylbutan-2-yl)-2-methyl-2-(5-(trifluoromethyl)pyridin-2-yloxy)propanamide]	140
CC(NC(=O)C(C)(C)Oc1ccc(Cl)cc1)C(Cc1ccc(Cl)cc1)c1ccccc1 (stereo not given) [N-[3-(4-chlorophenyl)-1-methyl-2-phenylpropyl]-2-(4-chlorophenyloxy)-2-methylpropanamide]	610
C[C@H](NC(=O)C(C)(C)Oc1ccc(Cl)cc1)[C@@H](Cc1ccc(Cl)cc1)c1ccc(Cl)cc1 [(1S,2S)N-[2,3-bis(4-chlorophenyl)-1-methylpropyl]-2-(4-chlorophenyloxy)-2-methylpropanamide]	> 2000
C[C@H](NC(=O)C(C)(C)Oc1ccc(Cl)cn1)[C@@H](Cc1ccc(Cl)cc1)c1ccccc1 [N-[(1S,2S)-3-(4-chlorophenyl)-1-methyl-2-phenylpropyl]-2-[(5-chloro-2-pyridin-2-yl)oxy]-2-methylpropanamide]	100
C[C@H](NC(=O)C(C)(C)Oc1cccc(F)c1)[C@@H](Cc1ccc(Cl)cc1)c1ccccc1 [N-[(1S,2S)-3-(4-chlorophenyl)-1-methyl-2-phenylpropyl]-2-(3-fluorophenyloxy)-2-methylpropanamide]	290
C[C@H](NC(=O)C(C)(C)Oc1cccc(Cl)c1)[C@@H](Cc1ccc(Cl)cc1)c1ccccc1 [N-[(1S,2S)-3-(4-chlorophenyl)-1-methyl-2-phenylpropyl]-2-(3-chlorophenyloxy)-2-methylpropanamide]	190
C[C@H](NC(=O)C(C)(C)Oc1cc(F)cc(F)c1)[C@@H](Cc1ccc(Cl)cc1)c1ccccc1 [N-((2S,3S)-4-(4-chlorophenyl)-3-phenylbutan-2-yl)-2-(3,5-difluorophenoxy)-2-methylpropanamide]	200
C[C@H](NC(=O)C(C)(C)Oc1ccccn1)[C@@H](Cc1ccc(Cl)cc1)c1ccccc1 [N-[(1S,2S)-3-(4-chlorophenyl)-1-methyl-2-phenyl-propyl]-2-(2-pyridyloxy)-2-methylpropanamide]	88
C[C@H](NC(=O)C(C)(C)Oc1ccccc1)[C@@H](Cc1ccc(Cl)cc1)c1ccccc1 [N-((2S,3S)-4-(4-chlorophenyl)-3-phenylbutan-2-yl)-2-methyl-2-phenoxypropanamide]	450
CC(NC(=O)C(C)(C)Oc1ccc(Cl)cc1)C(Cc1ccc(Cl)cc1)c1ccc(Cl)cc1 (stereo not given) [N-[2,3-bis(4-chlorophenyl)-1-methylpropyl]-2-(4-chlorophenyloxy)-2-methylpropanamide]	1100
